Measurements taken from patent publication US20250236589A1, “THERAPEUTIC PHENETHYLAMINE COMPOSITIONS AND METHODS OF USE” (Cybin IRL Limited, priority 2022, published 2025).
“And” between values parts separate entries of the source, which are not always exact repeats. Equal values may be shown once. Read-outs that look alike come from different tables or passages of the source. Marks after values point to notes of the source that are not given here.

Experiments:
5-HT2C receptor [1] = molecular target: T1, 5-HT2C receptor (Homo sapiens (Human), UniProt P28335); assay: 5-HT2C functional assay, TRUPATH (BRET); assay type: cell-based
T1 sequence (P28335 whole entry, looked up): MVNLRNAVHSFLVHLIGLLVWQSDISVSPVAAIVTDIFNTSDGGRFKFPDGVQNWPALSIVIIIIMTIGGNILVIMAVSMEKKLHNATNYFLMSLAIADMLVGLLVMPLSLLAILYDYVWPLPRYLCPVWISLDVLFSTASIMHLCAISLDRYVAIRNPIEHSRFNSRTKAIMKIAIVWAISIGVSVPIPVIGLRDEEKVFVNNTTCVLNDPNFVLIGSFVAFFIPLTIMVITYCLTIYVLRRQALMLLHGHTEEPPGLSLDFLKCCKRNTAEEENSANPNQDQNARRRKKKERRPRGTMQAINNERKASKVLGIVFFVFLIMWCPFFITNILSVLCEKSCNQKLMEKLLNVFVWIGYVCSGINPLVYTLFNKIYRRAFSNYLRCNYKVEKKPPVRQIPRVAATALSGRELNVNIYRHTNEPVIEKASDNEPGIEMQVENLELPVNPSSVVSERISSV
Experimental: (§1) 5-HT2A,2B,2C receptor-mediated Gq activation—canonical signaling pathways—[phosphoinositide hydrolysis leading to the production of inositol phosphate 1 (IP1, IPOne, Cisbio assay) or direct G-protein activation using TRUPATH technology]were measured as previously described (Porter, R. H. P., Benwell, K. R., Lamb, H., Malcolm, C. S., Allen, N. F., Revell, D. F., Adams, D. R. and Sheardown, M. J., 1999, Functional characterization of agonists at recombinant human 5-HT2a, 5HT2b and 5-HT2c receptors in CHO-K1 cells, Brit J Pharmacol 128, 13; Olsen, R. H. J., DiBerto, J. F., English, J. G. et al. TRUPATH, an open-source biosensor platform for interrogating the GPCR transducerome. […] Briefly, for the IPOne assay, for 5-HT2ARs, CHO-K1 or HEK-293 cells were incubated with test articles and 5-HT (positive control) in stimulation buffer containing LiCl. After incubation, cells were lysed and fluorescence acceptor and donor were added. FRET was measured after 60 min at room temperature using a microplate reader (Envision, Perkin Elmer). TRUPATH assays followed a similar workflow, except that different reagents were used, and LiCl was not included in the samples; the protocol was based on the report by Olsen, R. H. J. et al., cited above.

5-HT2A receptor [2] = molecular target: T2, 5-HT2A receptor (Homo sapiens (Human), UniProt P28223); assay: 5-HT2A radioligand competition binding ([3H]LSD or [3H]ketanserin)
human 5-HT2B receptor [3] = molecular target: T3, human 5-HT2B receptor (Homo sapiens (Human), UniProt P41595); assay: 5-HT2B functional assay, IP1 (IPOne); assay type: cell-based; settings: IP1 assay
T3 sequence (P41595 whole entry, looked up): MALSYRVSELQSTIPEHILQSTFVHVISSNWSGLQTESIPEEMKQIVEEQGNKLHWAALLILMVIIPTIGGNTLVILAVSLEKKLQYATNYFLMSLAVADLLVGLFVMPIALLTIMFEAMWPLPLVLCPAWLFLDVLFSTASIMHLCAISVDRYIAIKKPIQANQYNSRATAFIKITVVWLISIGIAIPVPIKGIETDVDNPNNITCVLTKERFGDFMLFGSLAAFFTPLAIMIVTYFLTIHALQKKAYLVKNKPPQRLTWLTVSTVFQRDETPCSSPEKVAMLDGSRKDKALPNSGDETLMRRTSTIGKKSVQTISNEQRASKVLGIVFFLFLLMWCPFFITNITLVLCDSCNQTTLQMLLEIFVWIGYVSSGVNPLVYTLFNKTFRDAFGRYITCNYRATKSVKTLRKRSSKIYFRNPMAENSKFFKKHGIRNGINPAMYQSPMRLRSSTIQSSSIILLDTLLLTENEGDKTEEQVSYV
Experimental: as §1

mice = assay: Head-twitch response (HTR) screening in mice; assay type: in vivo, mouse
Experimental: Protocols were followed according to Canal C E, Morgan D. Head-twitch response in rodents induced by the hallucinogen 2,5-dimethoxy-4-iodoamphetamine: a comprehensive history, a re-evaluation of mechanisms, and its utility as a model. […] Mice were housed in standard laboratory cages with ad libitum access to food and water and were acclimated to the vivarium for at least one week prior to testing in a procedure room. In a typical experiment, mice were injected 3 mg/kg of test article subcutaneously. Mice were placed immediately thereafter in a clear, polycarbonate box (46×20×20 cm), and HTRs were counted at various time points after administration using hand-held tally counters. In a separate experiment, plasma and brain samples were collected at 15 and 160 minutes after administration of test compounds to measure plasma and brain concentrations. Quantification was performed using LC-MS/MS method (LLOQ, 9 nM).

human 5-HT2B receptor [4] = molecular target: T3, human 5-HT2B receptor; assay: 5-HT2B radioligand competition binding ([3H]LSD); settings: read-out: 5-HT2B, Ki; radioligand [3H]LSD
5-HT2A receptor [5] = molecular target: T2, 5-HT2A receptor; assay: 5-HT2A functional assay, TRUPATH (BRET); assay type: cell-based
Experimental: (§2) After incubation, cells were lysed and fluorescence acceptor and donor were added. FRET was measured after 60 min at room temperature using a microplate reader (Envision, Perkin Elmer). TRUPATH assays followed a similar workflow, except that different reagents were used, and LiCl was not included in the samples; the protocol was based on the report by Olsen, R. H. J. et al., cited above.

5-HT2A receptor [6] = molecular target: T2, 5-HT2A receptor; assay: 5-HT2A functional assay, IP1 (IPOne); assay type: cell-based
Experimental: as §2

5-HT2C receptor [7] = molecular target: T1, 5-HT2C receptor; assay: 5-HT2C radioligand competition binding ([3H]mesulergine or [3H]LSD)
[8] = In vitro liver microsome stability (RLM); assay type: in vitro ADME; settings: rat, rat liver microsomes, 0.5 mg/mL microsomes, NADPH, read-out: RLM, t1/2
Experimental: (§3) In vitro stability was determined in Human (HLM), Rat (RLM), Mouse (MsLM), and dog (DLM) Liver Microsomes. All liver microsomes were purchased from a commercial supplier (e.g. XenoTech). The reaction mixture, minus NADPH, was prepared as described below. The test compound was added into the reaction mixture at a final concentration of 1 μM or co-dosed with their deuterated analog(s) at 1 μM each. The control compound, testosterone, was run simultaneously with the test compound in a separate reaction. The reaction mixture (without cofactor) was equilibrated in a shaking water bath at 37° C. for 5 minutes. The reaction was initiated by the addition of the cofactor, and the mixture was incubated in a shaking water bath at 37° C. Aliquots (150 μL) were withdrawn at 0, 5, 10, 20, 30, 60, and 120 minutes. Test compound and testosterone samples were immediately combined with 150 μL of ice-cold acetonitrile (ACN) containing 0.1% formic acid and internal standard to terminate the reaction. The samples were then mixed and centrifuged to precipitate proteins. All samples were assayed by LC-MS/MS using electrospray ionization. The peak area response ratio (PARR) of analyte to internal standard at each time point was compared to the PARR at time 0 to determine the percent remaining at each time point. Half-lives were calculated using GraphPad software, fitting to a single-phase exponential decay equation.

[9] = Plasma and brain concentrations after dosing in mice (screening); assay type: in vivo, mouse; settings: for concentration at 160 min: sc, mice, 3 mg/kg s.c.
[10] = In vitro liver microsome stability (HLM); assay type: in vitro ADME; settings: human, human liver microsomes, 0.5 mg/mL microsomes, NADPH, read-out: HLM, t1/2
Experimental: as §3, with “The peak area response ratio (PARR) of analyte to internal standard at each time point was compared to the PARR at time 0 to determine the percent remaining at each time point.” left out

[11] = In vitro liver microsome stability (MsLM); assay type: in vitro ADME; settings: mouse, mouse liver microsomes, 0.5 mg/mL microsomes, NADPH, read-out: MsLM, t1/2
Experimental: as §3, with “The peak area response ratio (PARR) of analyte to internal standard at each time point was compared to the PARR at time 0 to determine the percent remaining at each time point.” left out

[12] = In vitro liver microsome stability (DLM); assay type: in vitro ADME; settings: dog, dog liver microsomes, 0.5 mg/mL microsomes, NADPH, read-out: DLM, t1/2
Experimental: as §3, with “The peak area response ratio (PARR) of analyte to internal standard at each time point was compared to the PARR at time 0 to determine the percent remaining at each time point.” left out

MAO-A = MAO-A (Homo sapiens (Human), UniProt P21397); assay: Recombinant human MAO-A activity (stability); assay type: in vitro ADME; settings: hrMAO 0.02 mg/mL, read-out: MAO-A, t1/2
MAO-A, sequence (P21397 whole entry, looked up): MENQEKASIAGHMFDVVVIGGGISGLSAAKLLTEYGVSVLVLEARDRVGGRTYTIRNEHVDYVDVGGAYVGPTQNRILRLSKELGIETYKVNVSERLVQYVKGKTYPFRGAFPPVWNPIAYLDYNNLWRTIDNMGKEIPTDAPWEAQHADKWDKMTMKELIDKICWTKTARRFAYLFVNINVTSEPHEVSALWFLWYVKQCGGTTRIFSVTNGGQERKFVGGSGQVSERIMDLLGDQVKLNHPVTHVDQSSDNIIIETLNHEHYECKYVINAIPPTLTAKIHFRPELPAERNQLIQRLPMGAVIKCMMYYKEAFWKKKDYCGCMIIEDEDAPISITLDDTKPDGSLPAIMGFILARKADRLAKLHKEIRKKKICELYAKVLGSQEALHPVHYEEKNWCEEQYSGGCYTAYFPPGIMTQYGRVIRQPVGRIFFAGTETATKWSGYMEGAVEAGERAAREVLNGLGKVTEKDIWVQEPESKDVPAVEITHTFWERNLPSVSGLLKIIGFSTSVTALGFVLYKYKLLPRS
Experimental: hrMAO-A and MAO control were purchased from XenoTech. The reaction mixture was prepared as described below. The test compound was added into the reaction mixture at a final concentration of 1 μM or co-dosed with their deuterated analog at 1 μM each. The positive control kynuramine (25 μM) was run simultaneously with the test compound in a separate reaction. The reaction mixture (without test compounds or kynuramine) was equilibrated in a shaking water bath at 37° C. for 5 minutes. The reaction was initiated by the addition of the test compound or kynuramine, and the mixture was incubated in a shaking water bath at 37° C. Aliquots (150 μL) of the test compound reaction mixture were withdrawn at 0, 5, 10, 20, 30, 60, and 120 minutes. Aliquots (150 μL) of the positive control reaction mixture were withdrawn at 0 and 30 minutes. Test compound(s) and kynuramine samples were immediately combined with 150 μL of ice-cold 100% acetonitrile containing 0.1% formic acid and internal standard (0.2 μM metoprolol) to terminate the reaction. The samples were then mixed and centrifuged to precipitate proteins. All samples were assayed by LC-MS/MS. The peak area response ratio (PARR) of analyte to internal standard at each time point was compared to the PARR at time 0 to determine the percent remaining at each time point. Half-lives were calculated using GraphPad software, fitting to a single-phase exponential decay equation.

[13] = read-out: 5-HT2A, Ki, radioligand [3H]ketanserin
[14] = read-out: 5-HT2C, Ki, radioligand [3H]mesulergine

COc1cc(SC(F)(F)F)c(OC)cc1CCNCC1CC1 [Compound V-1, N-(cyclopropylmethyl)-2-(2,5-dimethoxy-4-((trifluoromethyl)thio)phenyl)ethan-1-amine]
EC50 (5-HT2C receptor [1]): 46 nM | Emax (5-HT2C receptor [1]; relative to 5-HT): 92% | Ki (5-HT2A receptor [2]; read-out: 5-HT2A, Ki, radioligand [3H]LSD): 10 nM | Ki (5-HT2A receptor [2]; read-out: 5-HT2AR affinity (Ki)): 10 nM | Emax (human 5-HT2B receptor [3]; constrained to 100%): 100% | EC50 (human 5-HT2B receptor [3]; read-out: 5-HT2B EC50): > 1000 nM | HTR (in words) (mice; 3 mg/kg): elicited an HTR to a much lower extent than DOI | HTR 15-25 min (mice; calculated using 0-30 min): 3 #### | HTR 160-170 min (mice; mice, 3 mg/kg s.c.): 4.42 | Ki (human 5-HT2B receptor [4]): 79 nM | EC50 (5-HT2A receptor [5]): 28 nM | Emax (5-HT2A receptor [5]; TRUPATH, relative to 5-HT): 75% | 5-HT2AR agonist activity (in words) (5-HT2A receptor [6]): potent 5-HT2AR agonist | EC50 (5-HT2A receptor [6]; 5-HT2A EC50, IP1 assay): 35 nM and 35.7 nM | Emax (5-HT2A receptor [6]; IP1 assay, relative to 5-HT): 31% | Ki (5-HT2C receptor [7]): 74.9 nM | Ki (5-HT2C receptor [7]; read-out: 5-HT2C, Ki, [3H]LSD, high-affinity active state): 0.98 nM

[2H]C([2H])([2H])Oc1cc(SC(F)(F)F)c(OC([2H])([2H])[2H])cc1CCN [II-10, 2-(2,5-bis(methoxy-d3)-4-((trifluoromethyl)thio)phenyl)ethan-1-amine]
half-life at 1 μM [8]: 0.988 h | brain/plasma ratio, 160 min ([9]; 160 min after 3 mg/kg): 24.4 | concentration at 160 min ([9]; mouse, brain, read-out: Brain, 160 min): 8.8 µM | Kp at 160 min ([9]; mouse, brain/plasma, subcutaneous, 3 mg/kg, 160 min after 3 mg/kg, read-out: brain/plasma ratio, 160 min): 24 to 32 | concentration at 160 min ([9]; mouse, plasma, read-out: Plasma, 160 min): 0.36 µM | half-life at 1 μM [10]: > 2 h | Ki (5-HT2A receptor [2]): 35 nM | affinity at 5-HT2A receptors (in words) (5-HT2A receptor [2]): superior affinity | Ki (5-HT2A receptor [2]; read-out: 5-HT2A, Ki, [3H]ketanserin, high-affinity active state): 0.54 nM | HTR 15-25 min (mice; measured 0-15 min): 25.6 ## | half-life at 1 μM [11]: > 2 h | 5-HT2AR agonist activity (in words) (5-HT2A receptor [6]): pronounced agonists | half-life at 1 μM [12]: > 2 h | half-life at 1 μM (MAO-A): > 2 h

[2H]C([2H])(N)Cc1cc(OC)c(C(F)(F)F)cc1OC [IV-3, 2-(2,5-dimethoxy-4-(trifluoromethyl)phenyl)ethan-1,1-d2-1-amine]
half-life at 1 μM [8]: 0.185 h | Ki (5-HT2A receptor [2]; [13]): 42 nM | half-life at 1 μM (MAO-A): 1.7 h | Ki (5-HT2C receptor [7]; [14]): 23 nM

COc1cc(C(F)(F)F)c(OC)cc1CCN [Reference Compound 4, 2-(2,5-dimethoxy-4-(trifluoromethyl)phenyl)ethan-1-amine, reference compound]
half-life at 1 μM [8]: 0.128 h | Ki (5-HT2A receptor [2]; [13]): 25 nM | half-life at 1 μM (MAO-A): 1.46 h | Ki (5-HT2C receptor [7]; [14]): 35 nM
